Where two headings read alike, the source gives them in different places.
Key:
[1] = molecular target: human CB2 receptors (Homo sapiens (Human), UniProt P34972); assay: functional cAMP assay, CHO cells expressing human CB2; format: cell-based
Outline: (§1)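 Cells are seeded 17-24 h ahead, then preincubated in Krebs Ringer bicarbonate buffer with 1 mM IBMX at 30 °C. Compounds act for 30 min at 30 °C, after which lysis and cAMP detection reagents are added for 2 h at room temperature. Time-resolved FRET gives cAMP content, and EC50 values are fitted from it.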

[2] = molecular target: human CB1 receptors (Homo sapiens (Human), UniProt P21554); assay: functional cAMP assay, CHO cells expressing human CB1; format: cell-based
human CB1 receptors, sequence (P21554 whole entry): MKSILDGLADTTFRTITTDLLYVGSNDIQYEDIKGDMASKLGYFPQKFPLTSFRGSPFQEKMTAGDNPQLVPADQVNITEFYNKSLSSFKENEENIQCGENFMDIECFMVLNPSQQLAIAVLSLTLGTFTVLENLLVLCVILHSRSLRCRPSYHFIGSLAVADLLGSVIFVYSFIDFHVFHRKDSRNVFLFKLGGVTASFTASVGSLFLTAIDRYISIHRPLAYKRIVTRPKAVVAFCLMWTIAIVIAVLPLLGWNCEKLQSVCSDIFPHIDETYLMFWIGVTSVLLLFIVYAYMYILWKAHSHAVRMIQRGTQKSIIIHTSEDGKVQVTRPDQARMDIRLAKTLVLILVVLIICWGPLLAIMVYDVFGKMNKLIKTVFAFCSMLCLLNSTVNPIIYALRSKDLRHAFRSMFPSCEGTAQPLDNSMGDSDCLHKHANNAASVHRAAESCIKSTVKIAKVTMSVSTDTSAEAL
Outline: as §1

[3] = functional cAMP assay, CHO cells expressing human CB1; read-out: Human CB1 EC50
[4] = Human CB1 EC50 (uM), functional cAMP assay, CHO cells expressing human CB1

human CB2 receptors, sequence (P34972 whole entry): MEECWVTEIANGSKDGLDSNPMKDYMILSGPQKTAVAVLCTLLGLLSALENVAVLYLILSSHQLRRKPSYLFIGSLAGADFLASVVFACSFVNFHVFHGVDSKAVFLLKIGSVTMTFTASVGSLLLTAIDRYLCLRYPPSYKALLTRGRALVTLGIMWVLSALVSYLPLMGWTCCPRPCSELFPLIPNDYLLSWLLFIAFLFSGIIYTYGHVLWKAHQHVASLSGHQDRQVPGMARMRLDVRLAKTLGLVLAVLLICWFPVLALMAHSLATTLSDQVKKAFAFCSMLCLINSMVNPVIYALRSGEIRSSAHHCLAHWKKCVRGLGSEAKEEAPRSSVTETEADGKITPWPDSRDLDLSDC

Compound	EC50 ([1]; read-out: Human CB2 EC50) [µM]	EC50 [2, 3] [µM]	EC50 ([1]; Human CB2 EC50 (uM)) [µM]	EC50 [2, 4] [µM]	EC50 ([2]; read-out: Human CB1 EC50; functional cAMP assay, CHO cells expressing human CB1) [µM]
O=C(NCC1(O)CCCCC1)c1cc(OCC2CC2)c(Cl)cn1 [Example 5, 5-Chloro-4-cyclopropylmethoxy-pyridine-2-carboxylic acid (1-hydroxy-cyclohexylmethyl)-amide]	0.107	> 10	–	–	–
CC(C)(C)C(NC(=O)c1cc(OCC(F)(F)F)c(C2CC2)cn1)C(N)=O (stereo not shown) [Example 194, N-(1-amino-3,3-dimethyl-1-oxobutan-2-yl)-5-cyclopropyl-4-(2,2,2-trifluoroethoxy)pyridine-2-carboxamide]	0.0151	> 10	–	–	–
NC(=O)CC(NC(=O)c1cc(OCC(F)(F)F)c(C2CC2)cn1)C1CC1 (stereo not shown) [Example 193, N-(3-amino-1-cyclopropyl-3-oxopropyl)-5-cyclopropyl-4-(2,2,2-trifluoroethoxy)pyridine-2-carboxamide]	0.114	> 10	–	–	–
Cc1nc([C@@](C)(CS(C)(=O)=O)NC(=O)c2cc(OCC(F)(F)F)c(C3CC3)cn2)no1 (single isomer, unassigned) [Example 98, 5-Cyclopropyl-4-(2,2,2-trifluoro-ethoxy)-pyridine-2-carboxylic acid [2-methanesulfonyl-1-methyl-1-(5-methyl-[1,2,4]oxadiazol-3-yl)-ethyl]-amide]	–	–	0.0706	> 10	–
Cc1nc(C(NC(=O)c2cc(O[C@@H](C)C(F)(F)F)c(C3CC3)cn2)C(C)(C)C)no1 (stereo partly drawn) [Example 221, 5-cyclopropyl-N-[2,2-dimethyl-1-(5-methyl-1,2,4-oxadiazol-3-yl)propyl]-4-[(2S)-1,1,1-trifluoropropan-2-yl]oxypyridine-2-carboxamide]	0.0084	> 10	–	–	–
O=C(NC(c1ccccn1)C(F)(F)F)c1cc(OCC2CC2)c(C2CC2)cn1 (stereo not shown) [Example 46, 5-Cyclopropyl-4-cyclopropylmethoxy-pyridine-2-carboxylic acid (2,2,2-trifluoro-1-pyridin-2-yl-ethyl)-amide]	0.0067	> 10	–	–	–
Cc1nc(C(C)(CC2CC2)NC(=O)c2cc(OCC(F)F)c(C3CC3)cn2)no1 (stereo not shown) [Example 145, 5-cyclopropyl-N-[1-cyclopropyl-2-(5-methyl-1,2,4-oxadiazol-3-yl)propan-2-yl]-4-(2,2-difluoroethoxy)pyridine-2-carboxamide]	0.0034	> 10	–	–	–
NC(=O)CC1(NC(=O)c2cc(OCC(F)(F)F)c(N3CC(F)(F)C3)cn2)COC1 [Example 223, N-[3-(2-amino-2-oxoethyl)oxetan-3-yl]-5-(3,3-difluoroazetidin-1-yl)-4-(2,2,2-trifluoroethoxy)pyridine-2-carboxamide]	0.166	> 10	–	–	–
Cc1nc(C(C)(CC2CC2)NC(=O)c2cc(OCC(F)F)c(C3CC3)cn2)no1 (single isomer, unassigned) [Example 154, 5-cyclopropyl-N-[1-cyclopropyl-2-(5-methyl-1,2,4-oxadiazol-3-yl)propan-2-yl]-4-(2,2-difluoroethoxy)pyridine-2-carboxamide]	–	–	0.0037	> 10	–
NC(=O)CC1(NC(=O)c2cc(OCC(F)F)c(C3CC3)cn2)CS(=O)(=O)C1 [Example 274, N-[3-(2-amino-2-oxoethyl)-1,1-dioxothietan-3-yl]-5-cyclopropyl-4-(2,2-difluoroethoxy)pyridine-2-carboxamide]	0.0101	> 10	–	–	–
CNC(=O)[C@@H](NC(=O)c1cc(OCC(F)(F)F)c(C2CC2)cn1)C(C)(C)C [Example 48, 5-Cyclopropyl-4-(2,2,2-trifluoro-ethoxy)-pyridine-2-carboxylic acid ((S)-2,2-dimethyl-1-methylcarbamoyl-propyl)-amide]	0.00158	0.661	–	–	–
CC(CF)Oc1cc(C(=O)NC2(CC(N)=O)CS(=O)(=O)C2)ncc1C1CC1 (single isomer, unassigned) [Example 291, N-[3-(2-amino-2-oxoethyl)-1,1-dioxothietan-3-yl]-5-cyclopropyl-4-[1-fluoropropan-2-yl]oxypyridine-2-carboxamide]	–	–	0.0003	> 10	–
Cc1nc(C(C)(NC(=O)c2cc(O[C@H](C)C(F)(F)F)c(C3CC3)cn2)C2CC2)no1 (single isomer, unassigned; epimer a) [Example 72]	0.0027	0.19	–	–	–
CC(CC1CC1)(NC(=O)c1cc(OCC(F)(F)F)c(C2CC2)cn1)c1noc(N)n1 (single isomer, unassigned) [Example 208, N-[2-(5-amino-1,2,4-oxadiazol-3-yl)-1-cyclopropylpropan-2-yl]-5-cyclopropyl-4-(2,2,2-trifluoroethoxy)pyridine-2-carboxamide]	–	–	0.0092	–	> 10
Cn1nnc(C(NC(=O)c2cc(OCC(F)(F)F)c(C3CC3)cn2)C(C)(C)C)n1 (stereo not shown) [Example 163, 5-cyclopropyl-N-[2,2-dimethyl-1-(2-methyltetrazol-5-yl)propyl]-4-(2,2,2-trifluoroethoxy)pyridine-2-carboxamide]	0.0045	> 10	–	–	–
CNC(=O)[C@H](C)C(C)(C)NC(=O)c1cc(OCC2CC2)c(Cl)cn1 [Example 35, (+)-5-Chloro-4-cyclopropylmethoxy-pyridine-2-carboxylic acid (1,1-dimethyl-2-methylcarbamoyl-propyl)-amide]	0.143	> 10	–	–	–
CC(C)C[C@H](NC(=O)c1cc(OCC2CC2)c(Br)cn1)C(N)=O [Example 9, 5-Bromo-4-cyclopropylmethoxy-pyridine-2-carboxylic acid ((S)-1-carbamoyl-3-methyl-butyl)-amide]	0.0329	> 10	–	–	–
CC(C)C[C@H](NC(=O)c1cc(OCC2CC2)c(C2CC2)cn1)C(N)=O [Example 47, 5-Cyclopropyl-4-cyclopropylmethoxy-pyridine-2-carboxylic acid ((S)-1-carbamoyl-3-methyl-butyl)-amide]	0.0118	> 10	–	–	–
CC(C)C[C@@](C)(CO)NC(=O)c1cc(OCC2CC2)c(Cl)cn1 [Example 27, (−)-5-Chloro-4-cyclopropylmethoxy-pyridine-2-carboxylic acid (1-hydroxymethyl-1,3-dimethyl-butyl)-amide]	0.0224	> 10	–	–	–
C[C@H](Oc1cc(C(=O)NC(C(N)=O)C(C)(C)C)ncc1C1CC1)C(F)(F)F (stereo partly drawn) [Example 199, N-(1-amino-3,3-dimethyl-1-oxobutan-2-yl)-5-cyclopropyl-4-[(2S)-1,1,1-trifluoropropan-2-yl]oxypyridine-2-carboxamide]	0.0078	> 10	–	–	–
Cc1nc(C(NC(=O)c2cc(O[C@@H](C)C(F)(F)F)c(C3CC3)cn2)C(C)(C)C)no1 (stereo partly drawn) [Example 214, 5-cyclopropyl-N-[2,2-dimethyl-1-(5-methyl-1,2,4-oxadiazol-3-yl)propyl]-4-[(2S)-1,1,1-trifluoropropan-2-yl]oxypyridine-2-carboxamide]	0.008	> 10	–	–	–
Cc1nc(C(C)(CO)NC(=O)c2cc(OCC(F)(F)F)c(C3CC3)cn2)no1 (single isomer, unassigned) [Example 140, 5-cyclopropyl-N-[1-hydroxy-2-(5-methyl-1,2,4-oxadiazol-3-yl)propan-2-yl]-4-(2,2,2-trifluoroethoxy)pyridine-2-carboxamide]	–	–	0.511	> 10	–
CC(CC1CC1)(NC(=O)c1cc(OCC(F)(F)F)c(C2CC2)cn1)C(N)=O (stereo not shown) [Example 186, N-(1-amino-3-cyclopropyl-2-methyl-1-oxopropan-2-yl)-5-cyclopropyl-4-(2,2,2-trifluoroethoxy)pyridine-2-carboxamide]	0.343	> 10	–	–	–
Cc1nc(C(NC(=O)c2cc(OCC(F)(F)F)c(C3CC3)cn2)C(C)(C)C)no1 (single isomer, unassigned) [Example 211, 5-cyclopropyl-N-[2,2-dimethyl-1-(5-methyl-1,2,4-oxadiazol-3-yl)propyl]-4-(2,2,2-trifluoroethoxy)pyridine-2-carboxamide]	–	–	0.0048	> 10	–
CNC(=O)CC(C)(NC(=O)c1cc(OCC(F)(F)F)c(C2CC2)cn1)C1CC1 (single isomer, unassigned) [Example 241, 5-cyclopropyl-N-[2-cyclopropyl-4-(methylamino)-4-oxobutan-2-yl]-4-(2,2,2-trifluoroethoxy)pyridine-2-carboxamide]	–	–	0.0119	> 10	–
Cc1nc(C(NC(=O)c2cc(O[C@@H](C)C(F)(F)F)c(C3CC3)cn2)C2(C)COC2)no1 (stereo partly drawn) [Example 254, 5-cyclopropyl-N-[(5-methyl-1,2,4-oxadiazol-3-yl)-(3-methyloxetan-3-yl)methyl]-4-[(2S)-1,1,1-trifluoropropan-2-yl]oxypyridine-2-carboxamide]	0.0065	> 10	–	–	–
Cc1nc(C(C)(CC2CC2)NC(=O)c2cc(OCCF)c(C3CC3)cn2)no1 (stereo not shown) [Example 146, 5-cyclopropyl-N-[1-cyclopropyl-2-(5-methyl-1,2,4-oxadiazol-3-yl)propan-2-yl]-4-(2-fluoroethoxy)pyridine-2-carboxamide]	0.0018	> 10	–	–	–
Cc1nc(C(C)(CC2CC2)NC(=O)c2cc(OCC(F)(F)F)c(C3CC3)cn2)no1 (single isomer, unassigned; enantiomer a) [Example 66, 5-Cyclopropyl-4-(2,2,2-trifluoro-ethoxy)-pyridine-2-carboxylic acid [2-cyclopropyl-1-methyl-1-(5-methyl-[1,2,4]oxadiazol-3-yl)-ethyl]-amide (enantiomer A)]	–	–	0.00595	> 10	–
CC(CC(N)=O)(NC(=O)c1cc(OCC(F)(F)F)c(C2CC2)cn1)C1CC1 (stereo not shown) [Example 230, N-(4-amino-2-cyclopropyl-4-oxobutan-2-yl)-5-cyclopropyl-4-(2,2,2-trifluoroethoxy)pyridine-2-carboxamide]	0.0009	> 10	–	–	–
